Laboratory results as given in US6472418B1, “Non-peptide NK1 receptors antagonists” (Warner-Lambert Company, priority 1998, dated 2002).

target: T1, Human NK1 Receptor (Homo sapiens, UniProt P25103); experiment: In Vitro Human NK1 Receptor Binding Assay ([125I]Bolton-Hunter substance P displacement, IM9 cells); conditions: Human lymphoma IM9 cells, [125I]Bolton-Hunter substance P; Table 3, array-synthesis products; read-out: IC50 (nM) hNK1
T1 construct: endogenous in cells; host or cells: Human lymphoma IM9 cells (whole cells)
T1 sequence (P25103 whole entry): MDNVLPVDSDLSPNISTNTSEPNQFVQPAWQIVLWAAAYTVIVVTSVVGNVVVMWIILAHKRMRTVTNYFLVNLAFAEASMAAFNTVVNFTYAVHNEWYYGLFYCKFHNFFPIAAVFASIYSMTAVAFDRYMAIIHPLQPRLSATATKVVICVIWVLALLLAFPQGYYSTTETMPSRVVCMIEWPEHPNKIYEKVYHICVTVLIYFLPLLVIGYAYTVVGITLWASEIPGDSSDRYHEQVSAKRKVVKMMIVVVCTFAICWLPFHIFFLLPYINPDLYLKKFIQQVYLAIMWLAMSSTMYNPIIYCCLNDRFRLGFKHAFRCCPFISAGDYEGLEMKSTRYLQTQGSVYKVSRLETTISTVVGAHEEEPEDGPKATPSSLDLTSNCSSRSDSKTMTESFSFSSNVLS
Summary of the method: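 Test compounds competed with 0.05-0.1 nM [125I]Bolton-Hunter substance P for binding to intact IM9 cells over 50 min at 21° C, pH 7.4 buffer with MnCl2 and peptidase inhibitors. […] [Sar9, Met(O2)11] substance P gave non-specific binding. Bound counts were measured after filtration and fitted iteratively.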

SMILES	IC50
CCC(NC(=O)C(Cc1c[nH]c2ccccc12)NCc1cc2ccccc2o1)c1ccccc1 (stereo not drawn) [Example 259, 2-[(Benzofuran-2-ylmethyl)-amino]-3-(1H-indol-3-yl)-N-(1-phenyl-propyl)-propionamide]	21 nM
O=C(NCc1cccc([N+](=O)[O-])c1)C(Cc1c[nH]c2ccccc12)NCc1cc2ccccc2o1 (stereo not drawn) [Example 260, 2-[(Benzofuran-2-ylmethyl)-amino]-3-(1H-indol-3-yl)-N-(3-nitro-benzyl)-propionamide]	14 nM
O=C(NCc1ccco1)C(Cc1c[nH]c2ccccc12)NCc1cc2ccccc2o1 (stereo not drawn) [Example 261, 2-[(Benzofuran-2-ylmethyl)-amino]-N-furan-2-ylmethyl-3-(1H-indol-3-yl)-propionamide]	406 nM
O=C(NCc1cccc(Cl)c1)C(Cc1c[nH]c2ccccc12)NCc1cc2ccccc2o1 (stereo not drawn) [Example 263, 2-[(Benzofuran-2-ylmethyl)-amino]-N-(3-chloro-benzyl)-3-(1H-indol-3-yl)-propionamide]	9 nM
O=C(NCc1ccc(F)c(F)c1)C(Cc1c[nH]c2ccccc12)NCc1cc2ccccc2o1 (stereo not drawn) [Example 268, 2-[(Benzofuran-2-ylmethyl)-amino]-N-(3,4-difluoro-benzyl)-3-(1H-indol-3-yl)-propionamide]	10 nM
O=C(NC(CO)CC1CCCCC1)C(Cc1c[nH]c2ccccc12)NCc1cc2ccccc2o1 (stereo not drawn) [Example 277, 2-[(Benzofuran-2-ylmethyl)-amino]-N-(2-cyclohexyl-1-hydroxymethyl-ethyl)-3-(1H-indol-3-yl)-propionamide]	2200 nM
O=C(NCc1ccc(Cl)c(Cl)c1)C(Cc1c[nH]c2ccccc12)NCc1cc2ccccc2o1 (stereo not drawn) [Example 279, 2-[(Benzofuran-2-ylmethyl)-amino]-N-(3,4-dichloro-benzyl)-3-(1H-indol-3-yl)-propionamide]	30 nM
O=C(NCCc1c[nH]c2ccccc12)C(Cc1c[nH]c2ccccc12)NCc1cc2ccccc2o1 (stereo not drawn) [Example 280, 2-[(Benzofuran-2-ylmethyl)-amino]-3-(1H-indol-3-yl)-N-[2-(1H-indol-3-yl)-ethyl]-propionamide]	2540 nM
O=C(NCCc1ccc([N+](=O)[O-])cc1)C(Cc1c[nH]c2ccccc12)NCc1cc2ccccc2o1 (stereo not drawn) [Example 281, 2-[(Benzofuran-2-ylmethyl)-amino]-3-(1H-indol-3-yl)-N-[2-(4-nitro-phenyl)-ethyl]-propionamide]	51 nM
CC(Cc1ccc(Cl)cc1)NC(=O)C(Cc1c[nH]c2ccccc12)NCc1cc2ccccc2o1 (stereo not drawn) [Example 282, 2-[(Benzofuran-2-ylmethyl)-amino]-N-[2-(4-chloro-phenyl)-1-methyl-ethyl]-3-(1H-indol-3-yl)-propionamide]	833 nM
O=C(NCCc1ccc(Cl)cc1)C(Cc1c[nH]c2ccccc12)NCc1cc2ccccc2o1 (stereo not drawn) [Example 288, 2-[(Benzofuran-2-ylmethyl)-amino]-N-[2-(4-chloro-phenyl)-ethyl]-3-(1H-indol-3-yl)-propionamide]	136 nM
O=C(NC(CO)Cc1ccccc1)C(Cc1c[nH]c2ccccc12)NCc1cc2ccccc2o1 (stereo not drawn) [Example 289, 2-[(Benzofuran-2-ylmethyl)-amino]-N-(1-hydroxymethyl-2-phenyl-ethyl)-3-(1H-indol-3-yl)-propionamide]	209 nM
CC(NC(=O)C(Cc1c[nH]c2ccccc12)NCc1cc2ccccc2o1)c1ccc(Br)cc1 (stereo not drawn) [Example 290, 2-[(Benzofuran-2-ylmethyl)-amino]-N-[1-(4-bromo-phenyl)-ethyl]-3-(1H-indol-3-yl)-propionamide]	8 nM
COc1cccc(CCNC(=O)C(Cc2c[nH]c3ccccc23)NCc2cc3ccccc3o2)c1 (stereo not drawn) [Example 291, 2-[(Benzofuran-2-ylmethyl)-amino]-3-(1H-indol-3-yl)-N-[2-(3-methoxy-phenyl)-ethyl]-propionamide]	1340 nM
O=C(NCc1ccccc1C(F)(F)F)C(Cc1c[nH]c2ccccc12)NCc1cc2ccccc2o1 (stereo not drawn) [Example 292, 2-[(Benzofuran-2-ylmethyl)-amino]-3-(1H-indol-3-yl)-N-(2-trifluoromethyl-benzyl)-propionamide]	1130 nM
O=C(NCCc1cccc(F)c1)C(Cc1c[nH]c2ccccc12)NCc1cc2ccccc2o1 (stereo not drawn) [Example 293, 2-[(Benzofuran-2-ylmethyl)-amino]-N-[2-(3-fluoro-phenyl)-ethyl]-3-(1H-indol-3-yl)-propionamide]	55 nM
CC(NC(=O)C(Cc1c[nH]c2ccccc12)NCc1cc2ccccc2o1)C1CCCCC1 (stereo not drawn) [Example 294, 2-[(Benzofuran-2-ylmethyl)-amino]-N-(1-cyclohexyl-ethyl)-3-(1H-indol-3-yl)-propionamide]	58 nM

The remaining lines, values ahead:

IC50	SMILES
9 nM	COc1ccc(C(C)NC(=O)C(Cc2c[nH]c3ccccc23)NCc2cc3ccccc3o2)cc1 (stereo not drawn) [Example 255, 2-[(Benzofuran-2-ylmethyl)-amino]-3-(1H-indol-3-yl)-N-[1-(4-methoxy-phenyl)-ethyl]-propionamide]
> 10000 nM	O=C(NCc1ccccc1O)C(Cc1c[nH]c2ccccc12)NCc1cc2ccccc2o1 (stereo not drawn) [Example 256, 2-[(Benzofuran-2-ylmethyl)-amino]-N-(2-hydroxy-benzyl)-3-(1H-indol-3-yl)-propionamide]
> 10000 nM	CC(C)(CNC(=O)C(Cc1c[nH]c2ccccc12)NCc1cc2ccccc2o1)c1ccccc1 (stereo not drawn) [Example 257, 2-[(Benzofuran-2-ylmethyl)-amino]-3-(1H-indol-3-yl)-N-(2-methyl-2-phenyl-propyl)-propionamide]
46 nM	O=C(NCc1ccc(Cl)cc1)C(Cc1c[nH]c2ccccc12)NCc1cc2ccccc2o1 (stereo not drawn) [Example 258, 2-[(Benzofuran-2-ylmethyl)-amino]-N-(4-chloro-benzyl)-3-(1H-indol-3-yl)-propionamide]
86 nM	O=C(NC1CCc2ccccc21)C(Cc1c[nH]c2ccccc12)NCc1cc2ccccc2o1 (stereo not drawn) [Example 262, 2-[(Benzofuran-2-ylmethyl)-amino]-N-indan-1-yl-3-(1H-indol-3-yl)-propionamide]
7 nM	CC(NC(=O)C(Cc1c[nH]c2ccccc12)NCc1cc2ccccc2o1)c1ccc(Cl)cc1 (stereo not drawn) [Example 264, 2-[(Benzofuran-2-ylmethyl)-amino]-N-[1(4-chloro-phenyl)-ethyl]-3-(1H-indol-3-yl)-propionamide]
328 nM	CC(C)(NC(=O)C(Cc1c[nH]c2ccccc12)NCc1cc2ccccc2o1)c1ccccc1 (stereo not drawn) [Example 265, 2-[(Benzofuran-2-ylmethyl)-amino]-3-(1H-indol-3-yl)-N-(1-methyl-1-phenyl-ethyl)-propionamide]
633 nM	O=C(NCC1CC2CCC1C2)C(Cc1c[nH]c2ccccc12)NCc1cc2ccccc2o1 (stereo not drawn) [Example 266, 2-[(Benzofuran-2-ylmethyl)-amino]-N-bicyclo[2.2.1]-hept-2-ylmethyl-3-(1H-indol-3-yl)-propionamide]
55 nM	O=C(NCc1ccc2c(c1)OCO2)C(Cc1c[nH]c2ccccc12)NCc1cc2ccccc2o1 (stereo not drawn) [Example 267, N-Benzo[1,3]-dioxol-5-ylmethyl-2-[(benzofuran-2-ylmethyl)-amino]-3-(1H-indol-3-yl)-propionamide]
> 10000 nM	O=C(NC1CCCCC1O)C(Cc1c[nH]c2ccccc12)NCc1cc2ccccc2o1 (stereo not drawn) [Example 270, 2-[(Benzofuran-2-ylmethyl)-amino]-N-(2-hydroxy-cyclohexyl)-3-(1H-indol-3-yl)-propionamide]
196 nM	COc1ccc(CCNC(=O)C(Cc2c[nH]c3ccccc23)NCc2cc3ccccc3o2)cc1 (stereo not drawn) [Example 271, 2-[(Benzofuran-2-ylmethyl)-amino]-3-(1H-indol-3-yl)-N-[2-(4-methoxy-phenyl)-ethyl]-propionamide]
> 10000 nM	O=C(NC1CCC(O)CC1)C(Cc1c[nH]c2ccccc12)NCc1cc2ccccc2o1 (stereo not drawn) [Example 273, 2-[(Benzofuran-2-ylmethyl)-amino]-N-(4-hydroxy-cyclohexyl)-3-(1H-indol-3-yl)-propionamide]
264 nM	O=C(NCCc1ccccc1F)C(Cc1c[nH]c2ccccc12)NCc1cc2ccccc2o1 (stereo not drawn) [Example 274, 2-[(Benzofuran-2-ylmethyl)-amino]-N-[2-(2-fluoro-phenyl)-ethyl]-3-(1H-indol-3-yl)-propionamide]
655 nM	O=C(NC1CCCCC1)C(Cc1c[nH]c2ccccc12)NCc1cc2ccccc2o1 (stereo not drawn) [Example 276, 2-[(Benzofuran-2-ylmethyl)-amino]-N-cyclohexyl-3-(1H-indol-3-yl)-propionamide]
2380 nM	O=C(NCCCc1ccccc1)C(Cc1c[nH]c2ccccc12)NCc1cc2ccccc2o1 (stereo not drawn) [Example 278, 2-[(Benzofuran-2-ylmethyl)-amino]-3-(1H-indol-3-yl)-N-(3-phenyl-propyl)-propionamide]
420 nM	O=C(NCc1ccc(C(F)(F)F)cc1)C(Cc1c[nH]c2ccccc12)NCc1cc2ccccc2o1 (stereo not drawn) [Example 283, 2-[(Benzofuran-2-ylmethyl)-amino]-3-(1H-indol-3-yl)-N-(4-trifluoromethyl-benzyl)-propionamide]
62 nM	O=C(NCCc1ccc(F)cc1)C(Cc1c[nH]c2ccccc12)NCc1cc2ccccc2o1 (stereo not drawn) [Example 284, 2-[(Benzofuran-2-ylmethyl)-amino]-N-[2-(4-fluoro-phenyl)-ethyl]-3-(1H-indol-3-yl)-propionamide]
> 10000 nM	O=C(O)C1CCC(CNC(=O)C(Cc2c[nH]c3ccccc23)NCc2cc3ccccc3o2)CC1 (stereo not drawn) [Example 286, 4-{[2-[(Benzofuran-2-ylmethyl)-amino]-3-(1H-indol-3-yl)-propionylamino]-methyl}-cyclohexanecarboxylic acid]
35 nM	N#CC(NC(=O)C(Cc1c[nH]c2ccccc12)NCc1cc2ccccc2o1)c1ccccc1 (stereo not drawn) [Example 287, 2-[(Benzofuran-2-ylmethyl)-amino]-N-(cyano-phenyl-methyl)-3-(1H-indol-3-yl)-propionamide]
